The results in this text go back to ChEMBL document CHEMBL4052785, “Discovery of (R)-5-(benzo[d][1,3]dioxol-5-yl)-7-((1-(vinylsulfonyl)pyrrolidin-2-yl)methyl)-7H-pyrrolo[2,3-d]pyrimidin-4-amine (B6) as a potent Bmx inhibitor for the treatment of NSCLC” (Bioorg Med Chem Lett, 2017).

The species named for series [1] is Homo sapiens. Nature of the series: Selectivity ratio of IC50 for recombinant human full length N-terminal His6-tagged YES to IC50 for human full length N-terminal His6-tagged BMX.
Series [2] is filed under the species Homo sapiens. Nature of the series: Selectivity ratio of IC50 for human JAK1 to IC50 for human full length N-terminal His6-tagged BMX.
The target of series [3] is Tyrosine-protein kinase FRK (Homo sapiens, UniProt P42685). Nature of the series: Inhibition of recombinant human N-terminal His6-tagged FRK (218 to end residues) expressed in baculovirus Sf21 insect cells preincubated for 5 mins followed by substrate addition after 30 to 60 mins in presence of ATP by fluorescence assay.
Chain of Tyrosine-protein kinase FRK (P42685 whole entry): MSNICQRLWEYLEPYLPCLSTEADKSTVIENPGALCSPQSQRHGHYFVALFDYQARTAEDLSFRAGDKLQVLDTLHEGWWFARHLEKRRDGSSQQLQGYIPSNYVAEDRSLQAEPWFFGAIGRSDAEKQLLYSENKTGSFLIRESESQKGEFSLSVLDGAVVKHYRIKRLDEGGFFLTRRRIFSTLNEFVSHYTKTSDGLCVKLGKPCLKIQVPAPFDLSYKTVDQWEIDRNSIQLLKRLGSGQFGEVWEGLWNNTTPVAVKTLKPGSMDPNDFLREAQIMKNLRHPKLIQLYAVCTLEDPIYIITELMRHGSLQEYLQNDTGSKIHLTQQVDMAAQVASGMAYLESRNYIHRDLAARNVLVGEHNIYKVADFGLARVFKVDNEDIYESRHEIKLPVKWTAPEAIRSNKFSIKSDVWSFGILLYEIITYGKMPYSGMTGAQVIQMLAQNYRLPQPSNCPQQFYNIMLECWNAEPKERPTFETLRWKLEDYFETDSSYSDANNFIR
The nature of series [4]: Aqueous solubility of the compound at 1 mg. The format is physicochemical.
Series [5] has as its target Tyrosine-protein kinase Lyn (Homo sapiens, UniProt P07948). Nature of the series: Inhibition of recombinant human full length N-terminal His6-tagged LYN expressed in Sf21 insect cells preincubated for 5 mins followed by […] substrate addition after 30 to 60 mins in presence of ATP by fluorescence assay.
The species entered for series [6] is Homo sapiens. The series is described as follows: Selectivity ratio of IC50 for recombinant human N-terminal His6-tagged ITK (352 to 617 residues) to IC50 for human full length N-terminal His6-tagged BMX.
Series [7] is filed under the species Homo sapiens. The series is described as follows: Selectivity ratio of IC50 for recombinant human full length N-terminal His6-tagged BRK to IC50 for human full length N-terminal His6-tagged BMX.
Series [8] is filed under the species Homo sapiens. Nature of the series: Selectivity ratio of IC50 for recombinant human full length N-terminal His6-tagged FYN to IC50 for human full length N-terminal His6-tagged BMX.
Series [9] deals with Tyrosine-protein kinase ABL1 (Homo sapiens, UniProt P00519). Nature of the series: Inhibition of recombinant human N-terminal His6-tagged ABL (27 to end residues) expressed in baculovirus Sf21 insect cells preincubated for 5 mins followed by substrate addition after 30 to 60 mins in presence of ATP by fluorescence assay.
Chain of Tyrosine-protein kinase ABL1 (P00519 whole entry): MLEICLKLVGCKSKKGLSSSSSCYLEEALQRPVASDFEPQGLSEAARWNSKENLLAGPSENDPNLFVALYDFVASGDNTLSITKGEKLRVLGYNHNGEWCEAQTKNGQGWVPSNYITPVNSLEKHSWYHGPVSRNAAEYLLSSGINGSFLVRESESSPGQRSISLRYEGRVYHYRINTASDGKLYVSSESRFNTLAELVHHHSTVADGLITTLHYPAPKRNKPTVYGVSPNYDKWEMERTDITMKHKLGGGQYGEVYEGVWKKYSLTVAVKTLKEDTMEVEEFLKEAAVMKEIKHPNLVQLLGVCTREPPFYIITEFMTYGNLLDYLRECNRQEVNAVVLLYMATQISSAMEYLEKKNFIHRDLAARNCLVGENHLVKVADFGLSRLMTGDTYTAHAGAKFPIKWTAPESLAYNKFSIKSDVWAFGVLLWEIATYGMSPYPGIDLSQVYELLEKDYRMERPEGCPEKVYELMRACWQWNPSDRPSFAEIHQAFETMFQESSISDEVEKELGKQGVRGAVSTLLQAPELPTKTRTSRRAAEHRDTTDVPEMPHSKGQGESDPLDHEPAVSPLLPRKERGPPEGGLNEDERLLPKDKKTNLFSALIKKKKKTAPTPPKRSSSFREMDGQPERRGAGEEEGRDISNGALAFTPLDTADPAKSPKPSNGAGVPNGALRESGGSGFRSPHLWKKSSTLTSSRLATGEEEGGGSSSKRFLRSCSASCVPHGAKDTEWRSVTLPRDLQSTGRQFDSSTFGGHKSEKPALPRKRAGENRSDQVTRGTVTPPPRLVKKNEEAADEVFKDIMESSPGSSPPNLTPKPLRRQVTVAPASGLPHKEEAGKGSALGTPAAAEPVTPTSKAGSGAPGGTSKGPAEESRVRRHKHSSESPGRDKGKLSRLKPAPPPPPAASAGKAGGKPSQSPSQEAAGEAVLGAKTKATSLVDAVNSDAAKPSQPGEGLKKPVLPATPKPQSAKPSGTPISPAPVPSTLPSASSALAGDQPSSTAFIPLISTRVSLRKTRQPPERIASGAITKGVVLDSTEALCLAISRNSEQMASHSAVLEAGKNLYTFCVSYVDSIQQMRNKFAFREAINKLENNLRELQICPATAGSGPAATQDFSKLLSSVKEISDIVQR
For series [10], the species on record is Homo sapiens. The series is described as follows: Selectivity ratio of IC50 for RSK1 (unknown origin) to IC50 for human full length N-terminal His6-tagged BMX.
For series [11], the species on record is Homo sapiens. The series is described as follows: Selectivity ratio of IC50 for recombinant human full length N-terminal His6-tagged BTK to IC50 for human full length N-terminal His6-tagged BMX.
Series [12] has as its target Platelet-derived growth factor receptor alpha (Homo sapiens, UniProt P16234). The series is described as follows: Inhibition of human PDGFRalpha expressed in baculovirus Sf21 insect cells preincubated for 5 mins followed by substrate addition after 30 to 60 mins in presence of ATP by fluorescence assay.
For series [13], the species on record is Homo sapiens. The series is described as follows: Selectivity ratio of IC50 for human N-terminal 6His-tagged HER4 (706 to 991 residues) to IC50 for human full length N-terminal His6-tagged BMX.
Series [14] is filed under the species Homo sapiens. The series is described as follows: Selectivity ratio of IC50 for recombinant human full length N-terminal His6-tagged SRC to IC50 for human full length N-terminal His6-tagged BMX.
For series [15], the target named is Tyrosine-protein kinase Fer (Homo sapiens, UniProt P16591). Nature of the series: Inhibition of recombinant human N-terminal His6-tagged FER (541 to end residues) expressed in baculovirus Sf21 insect cells preincubated for 5 mins followed by substrate addition after 30 to 60 mins in presence of ATP by fluorescence assay.
Chain of Tyrosine-protein kinase Fer (P16591 whole entry): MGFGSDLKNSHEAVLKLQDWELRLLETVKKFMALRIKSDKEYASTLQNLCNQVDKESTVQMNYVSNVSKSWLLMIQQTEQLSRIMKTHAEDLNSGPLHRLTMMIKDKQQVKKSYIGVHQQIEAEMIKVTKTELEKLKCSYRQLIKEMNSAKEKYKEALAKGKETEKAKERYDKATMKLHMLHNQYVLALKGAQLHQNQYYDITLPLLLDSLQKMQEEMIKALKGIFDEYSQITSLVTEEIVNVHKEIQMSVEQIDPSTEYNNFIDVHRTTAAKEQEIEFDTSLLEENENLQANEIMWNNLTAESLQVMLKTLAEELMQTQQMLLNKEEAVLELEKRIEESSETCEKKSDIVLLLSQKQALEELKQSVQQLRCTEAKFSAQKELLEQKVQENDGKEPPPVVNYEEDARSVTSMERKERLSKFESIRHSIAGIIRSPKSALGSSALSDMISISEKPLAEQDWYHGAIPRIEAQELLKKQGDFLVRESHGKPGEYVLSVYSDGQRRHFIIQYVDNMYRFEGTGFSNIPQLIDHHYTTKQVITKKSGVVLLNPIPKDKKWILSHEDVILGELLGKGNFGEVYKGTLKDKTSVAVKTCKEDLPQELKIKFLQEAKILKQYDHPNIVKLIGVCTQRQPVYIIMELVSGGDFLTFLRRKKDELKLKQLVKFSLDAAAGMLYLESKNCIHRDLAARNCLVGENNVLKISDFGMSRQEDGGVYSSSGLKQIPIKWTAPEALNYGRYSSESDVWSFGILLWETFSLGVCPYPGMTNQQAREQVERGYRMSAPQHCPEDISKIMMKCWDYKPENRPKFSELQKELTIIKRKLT
The next series deals with A549. Nature of the series: Antiproliferative activity against human A549 cells harboring wild type EGFR after 72 hrs by MTT assay. The following applies: A549, 72 h. In kind it is functional, cell-based. On the technique in general: Tetrazolium assays rely on reduction of a dye to a coloured formazan, in cell work by metabolically active cells.
The target in series [16] is Tyrosine-protein kinase CSK (Homo sapiens, UniProt P41240). Nature of the series: Inhibition of recombinant human full length N-terminal GST-tagged CSK expressed in Escherichia coli BL21 (DE3) cells preincubated for 5 mins followed by biotinyl-beta Abeta Abeta AEEEPQYEEIPIYLELLP substrate addition after 30 to 60 mins in presence of ATP by fluorescence assay.
Chain of Tyrosine-protein kinase CSK (P41240 whole entry): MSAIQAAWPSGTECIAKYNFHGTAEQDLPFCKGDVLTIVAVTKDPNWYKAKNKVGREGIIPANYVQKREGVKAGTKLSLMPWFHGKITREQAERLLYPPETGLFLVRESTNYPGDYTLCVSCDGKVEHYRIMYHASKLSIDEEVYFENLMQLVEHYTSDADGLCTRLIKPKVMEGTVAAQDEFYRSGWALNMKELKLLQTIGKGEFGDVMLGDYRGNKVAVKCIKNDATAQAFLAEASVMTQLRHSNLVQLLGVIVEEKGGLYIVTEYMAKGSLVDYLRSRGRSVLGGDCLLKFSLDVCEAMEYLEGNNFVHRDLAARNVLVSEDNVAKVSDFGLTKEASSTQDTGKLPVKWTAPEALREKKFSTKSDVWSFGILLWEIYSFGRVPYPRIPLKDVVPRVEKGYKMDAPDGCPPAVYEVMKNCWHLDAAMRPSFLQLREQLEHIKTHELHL
In series [17] the target is Tyrosine-protein kinase BTK (Homo sapiens, UniProt Q06187). The series is described as follows: Inhibition of recombinant human full length N-terminal His6-tagged BTK expressed in baculovirus Sf21 insect cells preincubated for 5 mins followed by LSNLYHQGKFLQT substrate addition after 30 to 60 mins in presence of ATP by fluorescence assay.

Each structure is given as a SMILES string. pIC50: −log10 of the molar value. Values after ≈ are worked out from the molar mass of the structure shown.

Chain of Tyrosine-protein kinase Lyn (P07948 whole entry, the tested form may be a part): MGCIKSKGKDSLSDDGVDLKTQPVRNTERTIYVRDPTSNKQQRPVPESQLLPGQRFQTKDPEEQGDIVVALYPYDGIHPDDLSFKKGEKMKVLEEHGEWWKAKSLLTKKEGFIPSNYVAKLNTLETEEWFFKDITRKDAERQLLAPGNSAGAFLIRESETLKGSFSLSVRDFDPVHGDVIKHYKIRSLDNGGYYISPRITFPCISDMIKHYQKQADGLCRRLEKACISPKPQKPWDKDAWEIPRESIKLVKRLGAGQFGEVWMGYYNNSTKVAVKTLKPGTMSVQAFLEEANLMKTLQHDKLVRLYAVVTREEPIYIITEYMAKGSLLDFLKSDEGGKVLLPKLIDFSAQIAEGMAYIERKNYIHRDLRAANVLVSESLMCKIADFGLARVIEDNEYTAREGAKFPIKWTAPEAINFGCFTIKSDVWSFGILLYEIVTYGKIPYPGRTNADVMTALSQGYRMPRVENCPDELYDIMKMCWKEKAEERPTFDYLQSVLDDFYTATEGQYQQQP
Chain of Platelet-derived growth factor receptor alpha (P16234 whole entry, the tested form may be a part): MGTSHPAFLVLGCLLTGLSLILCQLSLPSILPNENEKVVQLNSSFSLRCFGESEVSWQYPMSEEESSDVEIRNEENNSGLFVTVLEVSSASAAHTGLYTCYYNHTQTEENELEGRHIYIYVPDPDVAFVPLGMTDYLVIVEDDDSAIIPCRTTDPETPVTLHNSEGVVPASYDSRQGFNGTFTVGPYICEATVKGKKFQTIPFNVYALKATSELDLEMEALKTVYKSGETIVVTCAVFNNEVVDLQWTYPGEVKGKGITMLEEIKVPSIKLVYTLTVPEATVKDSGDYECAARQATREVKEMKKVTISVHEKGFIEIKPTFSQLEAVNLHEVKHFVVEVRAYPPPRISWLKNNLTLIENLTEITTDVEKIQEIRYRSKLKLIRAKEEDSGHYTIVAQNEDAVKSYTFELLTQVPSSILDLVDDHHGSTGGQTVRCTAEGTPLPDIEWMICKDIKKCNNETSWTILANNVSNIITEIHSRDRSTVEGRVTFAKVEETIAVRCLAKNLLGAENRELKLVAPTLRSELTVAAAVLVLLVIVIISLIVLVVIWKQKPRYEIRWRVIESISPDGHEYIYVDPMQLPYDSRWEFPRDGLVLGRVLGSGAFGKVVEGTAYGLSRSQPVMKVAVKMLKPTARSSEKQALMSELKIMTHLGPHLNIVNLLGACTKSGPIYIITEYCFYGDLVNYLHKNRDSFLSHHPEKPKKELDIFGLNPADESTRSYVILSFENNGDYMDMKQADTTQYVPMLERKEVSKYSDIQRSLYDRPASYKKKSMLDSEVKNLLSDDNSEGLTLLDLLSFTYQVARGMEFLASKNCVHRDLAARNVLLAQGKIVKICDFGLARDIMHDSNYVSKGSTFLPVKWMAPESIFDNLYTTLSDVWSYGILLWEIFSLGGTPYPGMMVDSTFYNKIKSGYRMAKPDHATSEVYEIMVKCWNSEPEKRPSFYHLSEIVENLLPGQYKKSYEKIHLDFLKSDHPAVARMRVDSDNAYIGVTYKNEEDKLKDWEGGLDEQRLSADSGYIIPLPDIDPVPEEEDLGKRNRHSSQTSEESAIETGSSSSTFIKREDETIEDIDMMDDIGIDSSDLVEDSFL

With `C=CS(=O)(=O)N1CCC[C@@H]1Cn1cc(-c2ccc3c(c2)OCO3)c2c(N)ncnc21`, the Ratio IC50 was 1.6 in the series filed under Homo sapiens [1]; greater than 280 in the series filed under Homo sapiens [2]; 158 in the series filed under Homo sapiens [6]; 5.9 in the series filed under Homo sapiens [7]; 12 in the series listed under Homo sapiens [8]; greater than 280 in the series listed under Homo sapiens [10]. The Ratio IC50 in the series listed under Homo sapiens [11] was 2.5; in the series filed under Homo sapiens [13], 28.1; in the series listed under Homo sapiens [14], 5.5. For the same compound, the pIC50 (usually the negative decadic logarithm of the IC50, by convention in mol/L) in series [3] was 6.29; in [5], 6.51; in series [9], 6.10; in [12] it was less than 5.00; in series [15] it was 5.23; in the series with A549 it was 5.38. Also, the pIC50 in [16] is 5.55; in series [17] it was 7.05. The concentration in solution in [4] (solubility) was 100 µg/mL (≈ 234 µM).
